Measurements taken from patent US7994140B2, “Classes of compounds that interact with GPCRs” (Alchemia Limited, priority 2002, dated 2011).

The compounds below were run against T1, MC4 (Homo sapiens, UniProt P32245) (assay: GPCR radioligand binding (RLB) assay, melanocortin MC4, [125I]NDP-αMSH). Details: 4.0 Micromolar; Example Library 11.
T1 construct: purchased Perkin Elmer BioSignal; host or cells: HEK 293
Method in brief: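 Membranes from HEK 293 cells expressing the recombinant human receptor were equilibrated with [125I]SST-14 (SST5) or [125I]NDP-αMSH (MC4), then compound added for an optimized incubation. Bound ligand separated by filtration on PEI-coated glass fiber and counted by liquid scintillation.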

T1 sequence (P32245 whole entry): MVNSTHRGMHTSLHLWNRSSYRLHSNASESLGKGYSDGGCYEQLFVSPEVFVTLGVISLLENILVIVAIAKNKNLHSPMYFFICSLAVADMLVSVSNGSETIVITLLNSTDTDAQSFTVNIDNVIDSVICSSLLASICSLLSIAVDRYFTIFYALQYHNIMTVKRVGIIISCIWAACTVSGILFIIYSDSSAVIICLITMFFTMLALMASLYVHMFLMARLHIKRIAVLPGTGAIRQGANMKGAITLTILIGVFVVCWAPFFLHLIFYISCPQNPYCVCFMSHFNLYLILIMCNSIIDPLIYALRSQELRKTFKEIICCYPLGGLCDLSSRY

Row | SMILES | MC4 Inhibition at 4.0 Micromolar
1 | NCCCC(=O)NC1C(OCc2ccc3ccccc3c2)OC(COCc2ccccc2)C(O)C1OCc1ccc2ccccc2c1 (stereo not shown) [Compound 426] | + (Indicates inhibition greater than . . . 50%)
2 | NCCCC(=O)NC1C(OCc2ccc3ccccc3c2)OC(COCc2ccc(Cl)cc2)C(O)C1OCc1ccc2ccccc2c1 (stereo not shown) [Compound 427] | + (Indicates inhibition greater than . . . 50%)
3 | NCCCC(=O)NC1C(OCc2ccc3ccccc3c2)OC(COCc2ccc3ccccc3c2)C(O)C1OCc1ccccc1 (stereo not shown) [Compound 428] | + (Indicates inhibition greater than . . . 50%)
4 | NCCCC(=O)NC1C(OCc2ccc3ccccc3c2)OC(COCc2ccccc2)C(O)C1OCc1ccccc1 (stereo not shown) [Compound 429] | + (Indicates inhibition greater than . . . 50%)
5 | NCCCC(=O)NC1C(OCc2ccc3ccccc3c2)OC(COCc2ccc(Cl)cc2)C(O)C1OCc1ccccc1 (stereo not shown) [Compound 430] | + (Indicates inhibition greater than . . . 50%)

Same assay, conditions: 4.0 Micromolar; Example Library 12

Row | SMILES | MC4 Inhibition at 4.0 Micromolar
6 | N=C(N)NCC(=O)N[C@H]1C(OCc2ccccc2)O[C@H](COCc2ccc3ccccc3c2)[C@@H](O)[C@@H]1OCc1ccc(Cl)cc1 (stereo partly shown) [Compound 431] | + (Indicates inhibition greater than . . . 50%)
7 | N=C(N)NCC(=O)N[C@H]1C(OCc2ccccc2)O[C@H](COCc2ccc3ccccc3c2)[C@@H](O)[C@@H]1OCc1ccc(Cl)cc1 (stereo partly shown) [Compound 432] | + (Indicates inhibition greater than . . . 50%)
8 | N=C(N)NCC(=O)N[C@H]1C(OCc2ccccc2)O[C@H](COCc2ccccc2)[C@@H](O)[C@@H]1OCc1ccc(Cl)cc1 (stereo partly shown) [Compound 433] | + (Indicates inhibition greater than . . . 50%)
9 | N=C(N)NCC(=O)N[C@H]1C(OCc2ccccc2)O[C@H](COCc2ccccc2)[C@@H](O)[C@@H]1OCc1ccc(Cl)cc1 (stereo partly shown) [Compound 434] | + (Indicates inhibition greater than . . . 50%)
10 | N=C(N)NCC(=O)N[C@H]1C(OCc2ccccc2)O[C@H](COCc2ccc(Cl)cc2)[C@@H](O)[C@@H]1OCc1ccc(Cl)cc1 (stereo partly shown) [Compound 435] | + (Indicates inhibition greater than . . . 50%)
11 | N=C(N)NCC(=O)N[C@H]1C(OCc2ccccc2)O[C@H](COCc2ccc3ccccc3c2)[C@@H](O)[C@@H]1OCc1ccc2ccccc2c1 (stereo partly shown) [Compound 436] | + (Indicates inhibition greater than . . . 50%)
12 | N=C(N)NCC(=O)N[C@H]1C(OCc2ccccc2)O[C@H](COCc2ccc3ccccc3c2)[C@@H](O)[C@@H]1OCc1ccc2ccccc2c1 (stereo partly shown) [Compound 437] | + (Indicates inhibition greater than . . . 50%)
13 | N=C(N)NCC(=O)N[C@H]1C(OCc2ccccc2)O[C@H](COCc2ccccc2)[C@@H](O)[C@@H]1OCc1ccc2ccccc2c1 (stereo partly shown) [Compound 438] | + (Indicates inhibition greater than . . . 50%)
14 | N=C(N)NCC(=O)N[C@H]1C(OCc2ccccc2)O[C@H](COCc2ccc(Cl)cc2)[C@@H](O)[C@@H]1OCc1ccc2ccccc2c1 (stereo partly shown) [Compound 439] | + (Indicates inhibition greater than . . . 50%)
15 | N=C(N)NCC(=O)N[C@H]1C(OCc2ccccc2)O[C@H](COCc2ccc(Cl)cc2)[C@@H](O)[C@@H]1OCc1ccc2ccccc2c1 (stereo partly shown) [Compound 440] | + (Indicates inhibition greater than . . . 50%)
16 | N=C(N)NCC(=O)N[C@H]1C(OCc2ccccc2)O[C@H](COCc2ccc3ccccc3c2)[C@@H](O)[C@@H]1OCc1ccc(-c2ccccc2)cc1 (stereo partly shown) [Compound 441] | + (Indicates inhibition greater than . . . 50%)
17 | N=C(N)NCC(=O)N[C@H]1C(OCc2ccccc2)O[C@H](COCc2ccccc2)[C@@H](O)[C@@H]1OCc1ccc(-c2ccccc2)cc1 (stereo partly shown) [Compound 442] | + (Indicates inhibition greater than . . . 50%)
18 | N=C(N)NCC(=O)N[C@H]1C(OCc2ccccc2)O[C@H](COCc2ccccc2)[C@@H](O)[C@@H]1OCc1ccc(-c2ccccc2)cc1 (stereo partly shown) [Compound 443] | + (Indicates inhibition greater than . . . 50%)
19 | N=C(N)NCC(=O)N[C@H]1C(OCc2ccccc2)O[C@H](COCc2ccc(Cl)cc2)[C@@H](O)[C@@H]1OCc1ccc(-c2ccccc2)cc1 (stereo partly shown) [Compound 444] | + (Indicates inhibition greater than . . . 50%)
20 | N=C(N)NCC(=O)N[C@H]1C(OCc2ccccc2)O[C@H](COCc2ccc(Cl)cc2)[C@@H](O)[C@@H]1OCc1ccc(-c2ccccc2)cc1 (stereo partly shown) [Compound 445] | + (Indicates inhibition greater than . . . 50%)
21 | N=C(N)NCCC(=O)N[C@H]1C(OCc2ccccc2)O[C@H](COCc2ccc3ccccc3c2)[C@@H](O)[C@@H]1OCc1ccc(Cl)cc1 (stereo partly shown) [Compound 446] | + (Indicates inhibition greater than . . . 50%)

Row | SMILES | MC4 Inhibition at 4.0 Micromolar
22 | N=C(N)NCCC(=O)N[C@H]1C(OCc2ccccc2)O[C@H](COCc2ccc3ccccc3c2)[C@@H](O)[C@@H]1OCc1ccc(Cl)cc1 (stereo partly shown) [Compound 447] | + (Indicates inhibition greater than . . . 50%)
23 | N=C(N)NCCC(=O)N[C@H]1C(OCc2ccccc2)O[C@H](COCc2ccccc2)[C@@H](O)[C@@H]1OCc1ccc(Cl)cc1 (stereo partly shown) [Compound 448] | + (Indicates inhibition greater than . . . 50%)
24 | N=C(N)NCCC(=O)N[C@H]1C(OCc2ccccc2)O[C@H](COCc2ccccc2)[C@@H](O)[C@@H]1OCc1ccc(Cl)cc1 (stereo partly shown) [Compound 449] | + (Indicates inhibition greater than . . . 50%)
25 | N=C(N)NCCC(=O)N[C@H]1C(OCc2ccccc2)O[C@H](COCc2ccc(Cl)cc2)[C@@H](O)[C@@H]1OCc1ccc(Cl)cc1 (stereo partly shown) [Compound 450] | + (Indicates inhibition greater than . . . 50%)
26 | N=C(N)NCCC(=O)N[C@H]1C(OCc2ccccc2)O[C@H](COCc2ccc(Cl)cc2)[C@@H](O)[C@@H]1OCc1ccc(Cl)cc1 (stereo partly shown) [Compound 451] | + (Indicates inhibition greater than . . . 50%)
27 | N=C(N)NCCC(=O)N[C@H]1C(OCc2ccccc2)O[C@H](COCc2ccc3ccccc3c2)[C@@H](O)[C@@H]1OCc1ccc2ccccc2c1 (stereo partly shown) [Compound 452] | + (Indicates inhibition greater than . . . 50%)
28 | N=C(N)NCCC(=O)N[C@H]1C(OCc2ccccc2)O[C@H](COCc2ccccc2)[C@@H](O)[C@@H]1OCc1ccc2ccccc2c1 (stereo partly shown) [Compound 453] | + (Indicates inhibition greater than . . . 50%)
29 | N=C(N)NCCC(=O)N[C@H]1C(OCc2ccccc2)O[C@H](COCc2ccccc2)[C@@H](O)[C@@H]1OCc1ccc2ccccc2c1 (stereo partly shown) [Compound 454] | + (Indicates inhibition greater than . . . 50%)
30 | N=C(N)NCCC(=O)N[C@H]1C(OCc2ccccc2)O[C@H](COCc2ccc(Cl)cc2)[C@@H](O)[C@@H]1OCc1ccc2ccccc2c1 (stereo partly shown) [Compound 455] | + (Indicates inhibition greater than . . . 50%)
31 | N=C(N)NCCC(=O)N[C@H]1C(OCc2ccccc2)O[C@H](COCc2ccc(Cl)cc2)[C@@H](O)[C@@H]1OCc1ccc2ccccc2c1 (stereo partly shown) [Compound 456] | + (Indicates inhibition greater than . . . 50%)
32 | N=C(N)NCCC(=O)N[C@H]1C(OCc2ccccc2)O[C@H](COCc2ccc3ccccc3c2)[C@@H](O)[C@@H]1OCc1ccc(-c2ccccc2)cc1 (stereo partly shown) [Compound 457] | + (Indicates inhibition greater than . . . 50%)
33 | N=C(N)NCCC(=O)N[C@H]1C(OCc2ccccc2)O[C@H](COCc2ccc3ccccc3c2)[C@@H](O)[C@@H]1OCc1ccc(-c2ccccc2)cc1 (stereo partly shown) [Compound 458] | + (Indicates inhibition greater than . . . 50%)
34 | N=C(N)NCCC(=O)N[C@H]1C(OCc2ccccc2)O[C@H](COCc2ccccc2)[C@@H](O)[C@@H]1OCc1ccc(-c2ccccc2)cc1 (stereo partly shown) [Compound 459] | + (Indicates inhibition greater than . . . 50%)
35 | N=C(N)NCCC(=O)N[C@H]1C(OCc2ccccc2)O[C@H](COCc2ccc(Cl)cc2)[C@@H](O)[C@@H]1OCc1ccc(-c2ccccc2)cc1 (stereo partly shown) [Compound 460] | + (Indicates inhibition greater than . . . 50%)
36 | N=C(N)NCCC(=O)N[C@H]1C(OCc2ccccc2)O[C@H](COCc2ccc(Cl)cc2)[C@@H](O)[C@@H]1OCc1ccc(-c2ccccc2)cc1 (stereo partly shown) [Compound 461] | + (Indicates inhibition greater than . . . 50%)
37 | N=C(N)NCCC(=O)N[C@H]1C(OCc2ccccc2)O[C@H](COCCc2ccccc2)[C@@H](O)[C@@H]1OCc1ccc(-c2ccccc2)cc1 (stereo partly shown) [Compound 462] | + (Indicates inhibition greater than . . . 50%)

Same assay, conditions: 4.0 Micromolar; Example Library 13

Row | SMILES | MC4 Inhibition at 4.0 Micromolar
38 | N=C(N)NCC(=O)N[C@H]1C(OCc2ccc(-c3ccccc3)cc2)O[C@H](COCc2ccc3ccccc3c2)[C@@H](O)[C@H]1OCc1ccc(Cl)cc1 (stereo partly shown) [Compound 463] | + (Indicates inhibition greater than . . . 50%)
39 | N=C(N)NCC(=O)N[C@H]1C(OCc2ccc(-c3ccccc3)cc2)O[C@H](COCc2ccccc2)[C@@H](O)[C@H]1OCc1ccc(Cl)cc1 (stereo partly shown) [Compound 464] | + (Indicates inhibition greater than . . . 50%)
40 | N=C(N)NCC(=O)N[C@H]1C(OCc2ccc(-c3ccccc3)cc2)O[C@H](COCc2ccc(Cl)cc2)[C@@H](O)[C@H]1OCc1ccc(Cl)cc1 (stereo partly shown) [Compound 465] | + (Indicates inhibition greater than . . . 50%)
41 | N=C(N)NCC(=O)N[C@H]1C(OCc2ccc(-c3ccccc3)cc2)O[C@H](COCc2ccccc2)[C@@H](O)[C@H]1OCc1ccc2ccccc2c1 (stereo partly shown) [Compound 466] | + (Indicates inhibition greater than . . . 50%)
42 | N=C(N)NCC(=O)N[C@H]1C(OCc2ccc(-c3ccccc3)cc2)O[C@H](COCc2ccc(Cl)cc2)[C@@H](O)[C@H]1OCc1ccc2ccccc2c1 (stereo partly shown) [Compound 467] | + (Indicates inhibition greater than . . . 50%)
43 | N=C(N)NCC(=O)N[C@H]1C(OCc2ccc(-c3ccccc3)cc2)O[C@H](COCc2ccccc2)[C@@H](O)[C@H]1OCc1ccc(-c2ccccc2)cc1 (stereo partly shown) [Compound 468] | + (Indicates inhibition greater than . . . 50%)
